Assay results as given in patent publication US7402691B2, “Malononitrile compounds and their use as pesticides” (Sumitomo Chemical Company, Limited, priority 2001, dated 2008).
Like-named read-outs stand apart in the source and are kept apart here.

Assays:
Assay type in all cases: in vivo
[1] = system: Musca domestica; experiment: Pesticidal test against Musca domestica, filter paper with sucrose bait (Test Example 6)
Description: Ten female adults of Musca domestics (house fly) were set free in the polyethylene cup, which was then kept covered. After 24 hours, their survival was examined to determine the mortality.

[2] = system: Leptinotarsa decemlineata; experiment: Pesticidal test against Leptinotarsa decemlineata, eggplant leaf dip (Test Example 5); settings: foliar, 120 h, eggplant leaf immersed 1 minute, second-instar larvae, 5th day after release, read-out: rate of dead or moribund pests
Description: A leaf of eggplant was immersed in the test liquid, which had been prepared as described above, for 1 minute. After the test liquid treated the leaf of eggplant was dried with a paper towel, the leaf of eggplant was placed in a polyethylene cup of 3 cm in diameter. One second-instar larvae of Leptinotarsa decemlineata (Colorado potato beetle) were set free in the polyethylene cup, which was then kept covered and left in a greenhouse at 25° C. This test was done ten times for one compound. On the 5th day after the release of Leptinotarsa decemlineata, the number of dead pests and moribund pests was examined.

[3] = system: Eysarcoris lewisi; experiment: Pesticidal test against Eysarcoris lewisi, treated peanut seeds (Test Example 4); settings: 168 h, peanut seeds immersed 1 minute, adults, 7th day after release, read-out: rate of dead or moribund pests
Description: Then, 3 to 5 seeds of peanut were immersed in the test liquid, which had been prepared as described above, for 1 minute. After the test liquid treated the seeds of peanut was dried with a paper towel, a filter paper moistened with 1 ml of water was placed on a bottom of polyethylene cup and then the seeds of peanut was placed on it. Six to eight adults of Eysarcoris lewisi were set free in the polyethylene cup, which was then kept covered and left in a greenhouse at 25° C. On the 7th day after the release of Eysarcoris lewisi, the number of dead pests and moribund pests was examined.

[4] = system: Ctenocephalides felis; experiment: Pesticidal test against Ctenocephalides felis, treated filter paper (Test Example 9); settings: 200 mg/m^2 on filter paper (acetone solution), twenty adults, after 24 hours
Description: Each of the compound 8, 15, 19, 21 and 34 was dissolved in acetone to give a 0.2 ml solution of 0.114% w/w, which was uniformly treated on a filter paper having 3.8cm in diameter, and air-dried. The amount of active ingredient was 200 mg/m^2. The filter paper was filled in a lid of a 200 ml glass bottle. Twenty adult Ctenocephalides felis (cat flea) were released in the glass bottle, which was followed by covering with the lid. The glass bottle was upset for making the fleas contact with the filter paper. After 24 hours, the mortality was examined.

[5] = 500 ppm, 0.7 ml on filter paper, ten female adults, after 24 hours, read-out: mortality

Compound | mortality at 500 ppm [1, 5] [%] | other results
N#CC(C#N)(CCC(F)=C(F)F)Cc1ccccc1 [Compound 4, 2-benzyl-2-(3,4,4-trifluoro-3-butenyl)malononitrile] | 100 | 
N#CC(C#N)(Cc1ccc(OC(F)(F)F)cc1)CC(F)(F)C(F)(F)F [Compound 5, 2-(2,2,3,3,3-pentafluoropropyl)-2-(4-(trifluoromethoxy)benzyl)malononitrile] | 100 | pest or weed control at 1.6 ppm [2]: > 80%
N#CC(C#N)(CCC(F)(F)F)Cc1c(Cl)cc(C(F)(F)F)cc1Cl [Compound 7, 2-(2,6-dichloro-4-(trifluoromethyl)benzyl)-2-(3,3,3-trifluoropropyl)malononitrile] | 100 | 
N#CC(C#N)(CCC(F)(F)F)Cc1ccc(Br)cc1 [Compound 9, 2-(4-bromobenzyl)-2-(3,3,3-trifluoropropyl)malononitrile] | 100 | pest or weed control at 100 ppm [3]: 100%
N#CC(C#N)(CCC(F)(F)C(F)(F)F)Cc1ccc(OC(F)(F)F)cc1 [Compound 10, 2-(3,3,4,4,4-pentafluorobutyl)-2-(4-(trifluoromethoxy)benzyl)malononitrile] | 100 | pest or weed control at 100 ppm [3]: 100%; pest or weed control at 1.6 ppm [2]: > 80%
N#CC(C#N)(CCC(F)F)Cc1ccc(C(F)(F)F)cc1 [Compound 11, 2-(3,3-difluoropropyl)-2-(4-(trifluoromethyl)benzyl)malononitrile] | 100 | pest or weed control at 100 ppm [3]: 100%
N#CC(C#N)(CCC(F)(F)F)Cc1ccccc1 [Compound 12, 2-benzyl-2-(3,3,3-trifluoropropyl)malononitrile] | 100 | 
N#CC(C#N)(CCC(F)(F)F)Cc1ccc(SC(F)(F)F)cc1 [Compound 13, 2-(4-(trifluoromethylthio)benzyl)-2-(3,3,3-trifluoropropyl)malononitrile] | 100 | 
N#CC(C#N)(CCCF)Cc1ccc(C(F)(F)F)cc1 [Compound 14, 2-(3-fluoropropyl)-2-(4-(trifluoromethyl)benzyl)malononitrile] | 100 | pest or weed control at 100 ppm [3]: 100%
N#CC(C#N)(CCC(F)(F)F)Cc1ccc(F)cc1 [Compound 16, 2-(4-fluorobenzyl)-2-(3,3,3-trifluoropropyl)malononitrile] | 100 | 
N#CC(C#N)(CCC(F)(F)F)Cc1ccc([N+](=O)[O-])cc1 [Compound 18, 2-(4-nitrobenzyl)-2-(3,3,3-trifluoropropyl)malononitrile] | 100 | 
N#CC(C#N)(CCC(F)(F)F)Cc1ccc(F)c(F)c1 [Compound 19, 2-(3,4-difluorobenzyl)-2-(3,3,3-trifluoropropyl)malononitrile] | 100 | mortality at 200 mg/m2 [4]: 100%
N#Cc1ccc(CC(C#N)(C#N)CCC(F)(F)F)cc1 [Compound 22, 2-(4-cyanobenzyl)-2-(3,3,3-trifluoropropyl)malononitrile] | 100 | pest or weed control at 100 ppm [3]: 100%
N#CC(C#N)(CCC(F)(F)C(F)(F)F)Cc1ccc(Cl)cc1 [Compound 23, 2-(4-chlorobenzyl)-2-(3,3,4,4,4-pentafluorobutyl)malononitrile] | 100 | pest or weed control at 100 ppm [3]: 100%
N#CC(C#N)(CCC(F)(F)F)Cc1ccc(I)cc1 [Compound 26, 2-(4-iodobenzyl)-2-(3,3,3-trifluoropropyl)malononitrile] | 100 | 
C=Cc1ccc(CC(C#N)(C#N)CCC(F)(F)F)cc1 [Compound 27, 2-(3,3,3-trifluoropropyl)-2-(4-vinylbenzyl)malononitrile] | 100 | 
CCc1ccc(CC(C#N)(C#N)CCC(F)(F)F)cc1 [Compound 31, 2-(4-ethylbenzyl)-2-(3,3,3-trifluoropropyl)malononitrile] | 100 | 
CC(C)(C)c1ccc(CC(C#N)(C#N)CCC(F)(F)F)cc1 [Compound 33, 2-(4-t-butylbenzyl)-2-(3,3,3-trifluoropropyl)malononitrile] | 100 | 
CC(C)c1ccc(CC(C#N)(C#N)CCC(F)(F)F)cc1 [Compound 35, 2-(4-isopropylbenzyl)-2-(3,3,3-trifluoropropyl)malononitrile] | 100 | 
N#CC(C#N)(CCC(F)(F)F)Cc1ccc(C(F)(F)F)c(Cl)c1 [Compound 39, 2-(3-chloro-4-(trifluoromethyl)benzyl)-2-(3,3,3-trifluoropropyl)malononitrile] | 100 | pest or weed control at 100 ppm [3]: 100%

Compound | mortality at 500 ppm [1, 5] [%] | other results
CC(c1ccc(Cl)cc1)C(C#N)(C#N)CCC(F)(F)F (centres unmarked) [Compound 42, 2-(1-(4-chlorophenyl)ethyl)-2-(3,3,3-trifluoropropyl)malononitrile] | 100 | 
N#CC(C#N)(CCC(F)(F)F)Cc1ccc(F)cc1Cl [Compound 44, 2-(2-chloro-4-fluorobenzyl)-2-(3,3,3-trifluoropropyl)malononitrile] | 100 | 
Cc1cc(CC(C#N)(C#N)CCC(F)(F)F)ccc1[N+](=O)[O-] [Compound 45, 2-(3-methyl-4-nitrobenzyl)-2-(3,3,3-trifluoropropyl)malononitrile] | 100 | 
N#Cc1ccc(CC(C#N)(C#N)CCF)cc1 [Compound 46, 2-(4-cyanobenzyl)-2-(2-fluoroethyl)malononitrile] | 100 | 
N#CC(C#N)(CCC(F)=C(F)F)Cc1ccc(OC(F)(F)F)cc1 [Compound 49, 2-(3,4,4-trifluoro-3-butenyl)-2-(4-(trifluoromethoxy)benzyl)malononitrile] | 100 | 
N#CC(C#N)(CCC(F)(F)F)Cc1ccc(OC(F)(F)F)cc1 [Compound 50, 2-(3,3,3-trifluoropropyl)-2-(4-(trifluoromethoxy)benzyl)malononitrile] | 100 | pest or weed control at 100 ppm [3]: 100%; pest or weed control at 1.6 ppm [2]: > 80%
CC(c1ccc(Cl)cc1)C(C#N)(C#N)CCF (centres unmarked) [Compound 53, 2-(1-(4-chlorophenyl)ethyl)-2-(2-fluoroethyl)malononitrile] | 100 | 
N#CC(C#N)(CCC(F)=C(F)F)Cc1ccc(SC(F)(F)F)cc1 [Compound 54, 2-(3,4,4-trifluoro-3-butenyl)-2-(4-(trifluoromethylthio)benzyl)malononitrile] | 100 | 
N#CC(C#N)(CCF)Cc1ccc(F)cc1 [Compound 59, 2-(4-fluorobenzyl)-2-(2-fluoroethyl)malononitrile] | 100 | 
N#CC(C#N)(CCC(F)(F)F)Cc1cc(F)cc(F)c1 [Compound 71, 2-(3,5-difluorobenzyl)-2-(3,3,3-trifluoropropyl)malononitrile] | 100 | 
N#CC(C#N)(Cc1ccc(C(F)(F)F)cc1)CC(F)(F)F [Compound 72, 2-(2,2,2-trifluoroethyl)-2-(4-(trifluoromethyl)benzyl)malononitrile] | 100 | 
N#CC(C#N)(CCC(F)=C(F)F)Cc1ccc(C(F)(F)F)cc1 [Compound 73, 2-(3,4,4-trifluoro-3-butenyl)-2-(4-(trifluoromethyl)benzyl)malononitrile] | 100 | 
N#CC(C#N)(CCC(F)(F)F)Cc1ccc(C(F)(F)F)cc1 [Compound 74, 2-(3,3,3-trifluoropropyl)-2-(4-(trifluoromethyl)benzyl)malononitrile] | 100 | pest or weed control at 100 ppm [3]: 100%; pest or weed control at 1.6 ppm [2]: > 80%
N#CC(C#N)(Cc1ccc(C(F)(F)F)cc1)CC(F)(F)C(F)(F)F [Compound 76, 2-(2,2,3,3,3-pentafluoropropyl)-2-(4-(trifluoromethyl)benzyl)malononitrile] | 100 | pest or weed control at 100 ppm [3]: 100%; pest or weed control at 1.6 ppm [2]: > 80%
N#CC(C#N)(Cc1ccc(C(F)(F)F)cc1)CC(F)(F)C(F)(F)C(F)(F)F [Compound 77, 2-(2,2,3,3,4,4,4-heptafluorobutyl)-2-(4-(trifluoromethyl)benzyl)malononitrile] |  | mortality at 500 ppm ([1]; 24 h): 100%
N#CC(C#N)(CCCC(F)(F)F)Cc1ccc(C(F)(F)F)cc1 [Compound 78, 2-(4,4,4-trifluorobutyl)-2-(4-(trifluoromethyl)benzyl)malononitrile] | 100 | pest or weed control at 1.6 ppm [2]: > 80%
N#CC(C#N)(CCC(F)(F)F)Cc1cccc(F)c1 [Compound 79, 2-(3-fluorobenzyl)-2-(3,3,3-trifluoropropyl)malononitrile] | 100 | 
N#CC(C#N)(CCC(F)(F)F)Cc1cccc(OCc2ccccc2)c1 [Compound 88, 2-(3-(benzyloxy)benzyl)-2-(3,3,3-trifluoropropyl)malononitrile] | 100 | 
COc1ccc(CC(C#N)(C#N)CCC(F)(F)F)cc1 [Compound 89, 2-(4-methoxybenzyl)-2-(3,3,3-trifluoropropyl)malononitrile] | 100 | 
